Structures are written as SMILES. Activity calls are given as the source filed them. The rule behind the calls is not given here.

The values that follow come from ChEMBL document CHEMBL1151993, “Oxylipins from Dracontium loretense” (J Nat Prod, 2009).

The subject of data set [1] is PBMC. Nature of the data set: Cytotoxicity in human PBMC cells at 100 uM after 48 hrs. It is filed as cell-based.
The test system of data set [2] is PBMC. Nature of the data set: Immunostimulatory activity in human PBMC assessed as reduction in cell proliferation at 100 uM after 48 hrs by [3H]thymidine incorporation assay relative to control. It is filed as functional, cell-based.
The test system of data set [3] is PBMC. Nature of the data set: Immunostimulatory activity in human PBMC assessed as cell activation at 10 uM after 48 hrs by [3H]thymidine incorporation assay relative to control. In kind it is functional, cell-based.

Regarding `CC/C=C\C/C=C\[C@@H](O)[C@H](O)[C@@H](O)CCCCCCCC(=O)O` (relative stereo), the Activity result in data set [1] is “Toxic”. In addition, the result in data set [2] was inactive.

Regarding `CCCCCCCC[C@@H](O)[C@H](O)/C=C/C(O)CCCCC(=O)O` (relative stereo), the Activity result in data set [1] is “Toxic”. Further, the result in data set [2] was inactive.

Take `CCCCCCCC[C@H](O)[C@@H](O)[C@H](O)/C=C\CCCCC(=O)O` (relative stereo): the Activity result in data set [1] is recorded as “Toxic”. For the same compound, the outcome in data set [2] was inactive.

On to `CCCCCCCC[C@H](O)[C@H](O)/C=C/C(O)CCCCC(=O)O` (relative stereo), for which the Activity entry in data set [1] is “Toxic”. In addition, in data set [3], the outcome was Active. Moreover, in data set [2], the outcome was inactive.
